{"source": "paper PMC8241751", "about": "“Influence of the Dabcyl group on the cellular uptake of cationic peptides: short oligoarginines as efficient cell-penetrating peptides” (Amino Acids, 2021)", "key": {"[1]": {"test_system": "CHO-K1 cells", "test": "Relative quantification of total internalised peptide by flow cytometry", "conditions": "CHO-K1, 1 h, DMEM-F12, internalisation ratio by flow cytometry, intact cells, 20.000 cells", "protocol": "After incubation and washing the cells with HBSS, 500 μL 0.05% trypsin/EDTA 0.05% (37 °C) or 500 µL pronase 0.05% in 100 mM Tris-buffer (4 °C) was added for 5 min to hydrolyze the remaining extracellular peptide, the membrane-bound peptide and to detach cells. After addition of 100 µL enzyme inhibitors (complete mini at 4 °C (Roche) or trypsin inhibitor (soybean inhibitor 5 mg/mL) at 37 °C mixed with 100 μL bovine serum albumin (1 mg/mL). Cells were transferred into a microtube, centrifuged, washed with 1 mL 50 mM Tris-buffer pH 7.4, 0.1% BSA, and the cell pellet was suspended in 400 μL of PBS. The fluorescence of individual cells was analysed with a FACS Calibur flow cytometer. 20.000 cells were measured for each experimental condition. The mean fluorescence of a sample was obtained by subtracting the autofluorescence of cells from the measured mean fluorescence of cells in the presence of the peptide."}, "[2]": {"test_system": "HeLa cells", "test": "Confocal microscopy of internalisation into HeLa cells", "type": "cell-based, human", "conditions": "5 μM, serum free (–) medium, 37 °C", "protocol": "HeLa cells (2.0 × 10^5 cells) seeded in 35-mm glass-bottomed dishes (Iwaki) were cultured at a 37 °C incubator for 24 h. The cells were then incubated with peptide in α-MEM( +) and α-MEM(–) for 30 min at 37 °C or 4 °C. After washing with PBS( +) containing 0.5% (w/v) heparin, intracellular distribution of the fluorescently-labelled peptides was analysed without fixing using a confocal microscope (FV1000, Olympus). For time-lapse imaging, the cells were placed at 37 °C in a microchamber (MI-IBC-IF, Olympus) attached on the stage of the inverted microscope. The cells were then treated with 5 µM of Dabcyl–Arg6–Lys(Rh)–NH2 or Dabcyl–Arg4–Lys(Cf)–NH2 in α-MEM( +) or α-MEM(–). Time 0 represents the image immediately after the addition of conjugates."}, "[3]": {"test_system": "CHO-K1 cells", "test": "Absolute quantification of total internalised peptide by fluorometry", "conditions": "for Total (37 °C–4 °C) (pmoles) Endocyt. / 4 °C/37 °C (Fluoro): CHO-K1, 60 min; for Total (37 °C–4 °C) (pmoles) Endocyt.: difference of fluorometry values at 37 °C and 4 °C; for 4 °C/37 °C (Fluoro): internalisation ratio by fluorometry; for Total 4 °C (pmoles) Transloc. / Total 37 °C (pmoles) Endocyt. + Transloc.: one million CHO-K1 cells, DMEM-F12, 60 min, cell lysis, fluorometry 525 nm vs calibration curve, mean values; for Total 4 °C (pmoles) Transloc.: pronase wash; for Total 37 °C (pmoles) Endocyt. + Transloc.: trypsin wash", "protocol": "We used the quantification method described earlier (Illien et al. [2016]). […] After incubation with peptides and washing the cells with HBSS, 500 μL 0.05% trypsin/EDTA 0.05% (37 °C) or 500 µL pronase 0.05% in 100 mM Tris pH 7.4 (4 °C) was added for 5 min to hydrolyze the remaining extracellular peptide, the membrane-bound peptide and to detach cells. After addition of 100 µL enzyme inhibitors (complete mini at 4 °C (Roche) or trypsin inhibitor (soybean inhibitor 5 mg/mL) at 37 °C mixed with 100 μL bovine serum albumin (1 mg/mL), cells were transferred into a microtube, centrifuged, washed with 1 mL 50 mM Tris buffer pH 7.4, 0.1% BSA, and lysed in 200 μL 50 mM Tris pH 7.4, 1 M NaCl, 1% Nonident P40. The samples were then sonicated for 15 min (to homogenise samples) and centrifugated for 10 min at 16.000 g. Fluorescence intensity in the supernatants was monitored with a MOS 200 M fluorimeter (Biologic SAS) and the maximal intensity was detected around λ = 525 nm. The maximal intensity was retained for the calibration curve and for quantification of samples. The amount of internalised peptides was calculated by comparing the fluorescence intensity of the sample with the calibration curve. For the calibration curve, we prepared a range of peptide amounts (from 2 to 500 pmol) in the lysis buffer (50 mM Tris pH 7.4, 1 M NaCl, 1% Nonidet P40) in the presence of one million suspended cells. The samples were sonicated 15 min and centrifuged at 16.000 g for 10 min. Fluorescence intensity in the supernatants was monitored with a MOS 200 M fluorimeter (Biologic SAS, France) and the maximal intensity was detected around λ = 525 nm. The fluorescence signal of peptides only was obtained by subtracting the fluorescence intensity of cell lysates (autofluorescence) from the fluorescence intensity of the sample."}, "[4]": {"test_system": "HL-60 cells", "test": "In vitro cytostatic activity (MTT) on HL-60", "type": "cell-based, human", "conditions": "HL-60; 3 h incubation, then 3 days in serum-containing medium; MTT assay; ± sd, three independent experiments with four parallels", "protocol": "The cells (HL-60 or MCF-7) were grown to confluency and were plated into 96-well plate with initial cell number of 5 × 10^3 per well. After 24 h incubation at 37 °C, cells were treated with the compounds at 1.28 × 10^–3–100 μM concentration range for 3 h in 200 μL final volume. Control cells were treated with serum free medium at 37 °C for 3 h. After incubation the cells were washed twice with serum free medium. For the analysis of the in vitro cytostatic effect, cells were cultured for an additional 72 h in serum containing medium. On day 4, MTT assay was carried out to determine the IC50 values of the compounds. Briefly, 45 μL of MTT solution was added to each well (2 mg/mL, dissolved in serum-free medium). Following the 4 h incubation, plates were centrifuged at 900 g for 5 min, and the supernatant was removed. The precipitated purple crystals were dissolved in 100 μL DMSO and the absorbance was determined at λ = 540 nm and λ = 620 nm using ELISA plate reader (iEMSReader, Labsystems, Finland). The percent of cytostasis was calculated using the following equation: Cytostatic effect (%) = [1 − (ODtreated/ODcontrol)] × 100; where ODtreated and ODcontrol correspond to the optical densities of the treated and the untreated control cells, respectively. In each case three independent experiments were carried out with four parallel measurements. […] The curves were defined using MicrocalTM Origin (version 9.2) software: cytostasis was plotted as a function of concentration, fitted to a sigmoidal curve, and based on this curve, the IC50 value was determined."}}, "note": "Where a SMILES comes first, the peptide text is derived from it. The star is where a group is joined. 5FAM = O=C1OC2(c3ccc(O)cc3Oc3cc(O)ccc32)c2ccc(C(=O)*)cc21; X1 = CN(C)c1ccc(/N=N/c2ccc(C(=O)*)cc2)cc1"}
{"smiles": "CN(C)c1ccc(/N=N/c2ccc(C(=O)N[C@@H](CCCNC(=N)N)C(=O)N[C@@H](CCCNC(=N)N)C(=O)N[C@@H](CCCNC(=N)N)C(=O)N[C@@H](CCCNC(=N)N)C(=O)N[C@@H](CCCNC(=N)N)C(=O)N[C@@H](CCCNC(=N)N)C(=O)N[C@@H](CCCCNC(=O)c3ccc4c(c3)C(=O)OC43c4ccc(O)cc4Oc4cc(O)ccc43)C(N)=O)cc2)cc1", "note": "[Dabcyl–Arg6–Lys(Cf)–NH2] (X1-RRRRRRK(5FAM)-NH2)", "values": [{"measurement": "4 °C/37 °C (Flow cyto.)", "setting": "[1]; [peptide] 1 μM", "result": 0.14}, {"measurement": "4 °C/37 °C (Flow cyto.)", "setting": "[1]; [peptide] 2.5 μM", "result": 0.04}, {"measurement": "4 °C/37 °C (Flow cyto.)", "setting": "[1]; [peptide] 5 μM", "result": 0.05}, {"measurement": "4 °C/37 °C (Flow cyto.)", "setting": "[1]; [peptide] 10 μM", "result": 0.04}, {"measurement": "Time of binding to the cell membrane", "setting": "[2]", "result": 0.5, "unit": "min"}, {"measurement": "Time of internalisation", "setting": "[2]", "result": "≤ 1.5", "unit": "min"}, {"measurement": "Total (37 °C–4 °C) (pmoles) Endocyt.", "setting": "[3]; [peptide] 1 μM", "result": 1.9, "unit": "pmol"}, {"measurement": "4 °C/37 °C (Fluoro)", "setting": "[3]; [peptide] 1 μM", "result": 0.25}, {"measurement": "Total 4 °C (pmoles) Transloc.", "setting": "[3]; [peptide] 1 μM", "result": "0.6 ± 0.04", "unit": "pmol"}, {"measurement": "Total 37 °C (pmoles) Endocyt. + Transloc.", "setting": "[3]; [peptide] 1 μM", "result": "2.5 ± 0.2", "unit": "pmol"}, {"measurement": "Total (37 °C–4 °C) (pmoles) Endocyt.", "setting": "[3]; [peptide] 2.5 μM", "result": 22, "unit": "pmol"}, {"measurement": "4 °C/37 °C (Fluoro)", "setting": "[3]; [peptide] 2.5 μM", "result": 0.08}, {"measurement": "Total 4 °C (pmoles) Transloc.", "setting": "[3]; [peptide] 2.5 μM", "result": "1.9 ± 0.3", "unit": "pmol"}, {"measurement": "Total 37 °C (pmoles) Endocyt. + Transloc.", "setting": "[3]; [peptide] 2.5 μM", "result": "24 ± 1.3", "unit": "pmol"}, {"measurement": "Total (37 °C–4 °C) (pmoles) Endocyt.", "setting": "[3]; [peptide] 5 μM", "result": 53, "unit": "pmol"}, {"measurement": "4 °C/37 °C (Fluoro)", "setting": "[3]; [peptide] 5 μM", "result": 0.10}, {"measurement": "Total 4 °C (pmoles) Transloc.", "setting": "[3]; [peptide] 5 μM", "result": "6.1 ± 0.8", "unit": "pmol"}, {"measurement": "Total 37 °C (pmoles) Endocyt. + Transloc.", "setting": "[3]; [peptide] 5 μM", "result": "59 ± 2.5", "unit": "pmol"}, {"measurement": "Total (37 °C–4 °C) (pmoles) Endocyt.", "setting": "[3]; [peptide] 10 μM", "result": 131, "unit": "pmol"}, {"measurement": "4 °C/37 °C (Fluoro)", "setting": "[3]; [peptide] 10 μM", "result": 0.12}, {"measurement": "Total 4 °C (pmoles) Transloc.", "setting": "[3]; [peptide] 10 μM", "result": "18 ± 2", "unit": "pmol"}, {"measurement": "Total 37 °C (pmoles) Endocyt. + Transloc.", "setting": "[3]; [peptide] 10 μM", "result": "149 ± 6", "unit": "pmol"}, {"measurement": "IC50", "setting": "[4]", "result": "21.8 ± 8.2", "unit": "µM"}]}
